Test results as given in patent US8293462B2, “Method of preserving early mammalian embryos by vitrification” (Central Institute for Experimental Animals, priority 2005, dated 2012).

Tested on: marmoset ES cells, cell line No. 40
Experiment: Survival of ES cell clumps after thaw, cell line No. 40
Type: cell-based, common marmoset (Callithrix jacchus)
Details: FIG. 1
Excerpt: As marmoset ES cells, two cell lines, i.e., No. 40 and No. 20, which were established by the Central Institute for Experimental Animals (Japan), were employed (Sasaki E. et al., 2005, Establishment of Novel Embryonic Stem Cell Lines Derived from the Common Marmoset (Callithrix jacchus), Stem Cells. (in press)). The cell clumps separated via trypsin treatment were recovered with an egg-sampling pipette and used in the preservation experiment.
In the method of preservation by vitrification according to the present invention, […] PB1, 10% propylene glycol, 30% ethylene glycol, 20% Percoll®(t, and 0.3 M sucrose were used. In thaw, the SPB1 solution comprising PB1 and 0.3 M sucrose was used.
In preservation of the control embryos by vitrification (Fujioka T. et al., Int. J. Dev. Biol. 48: 1149-1154), a DAP213 solution comprising PB1, 2 mol of DMSO, 1 mol of acetamide, and 3 mol of propylene glycol was used. In slow freezing (Reubinoff B. E. et al., Human Reprod. Vol. 16, No. 10, 2187-2194), the SF solution comprising 10% DMSO in FCS was used.
Subsequently, the cell clumps were introduced into a preservation tube (Nunc 375353) with 5 μl of P10, followed by cooling at 0° C. for 1 minute. Thereafter, 95 μl of PEPeS, which had been cooled to 0° C., was introduced into the tube. […]

## CC(O)CO (centres unmarked) [propylene glycol]
Pretreatment solution PB1 + 5% propylene glycol, 4 days after initiation of culture
  survival rate after thaw compared with control that had not been preserved: significantly lower
Pretreatment solution PB1 + 15% propylene glycol, 4 days of culture
  survival rate after thaw compared with control that had not been preserved: did not differ from the control embryos
